# Results reported in ChEMBL document CHEMBL5465560, “Selectivity Literature for EUbOPEN Chemogenomic Library” (2024).
# pEC50: −log10 of the molar value.
# Key:
# [1] = molecular target: T1, Serine/threonine-protein kinase Nek3 (Homo sapiens) (UniProt P51956); test: Selectivity interaction (KinomeScan (DiscoverX)) EUB0000092b NEK3; conditions: at 10 µM
# T1 sequence (whole entry): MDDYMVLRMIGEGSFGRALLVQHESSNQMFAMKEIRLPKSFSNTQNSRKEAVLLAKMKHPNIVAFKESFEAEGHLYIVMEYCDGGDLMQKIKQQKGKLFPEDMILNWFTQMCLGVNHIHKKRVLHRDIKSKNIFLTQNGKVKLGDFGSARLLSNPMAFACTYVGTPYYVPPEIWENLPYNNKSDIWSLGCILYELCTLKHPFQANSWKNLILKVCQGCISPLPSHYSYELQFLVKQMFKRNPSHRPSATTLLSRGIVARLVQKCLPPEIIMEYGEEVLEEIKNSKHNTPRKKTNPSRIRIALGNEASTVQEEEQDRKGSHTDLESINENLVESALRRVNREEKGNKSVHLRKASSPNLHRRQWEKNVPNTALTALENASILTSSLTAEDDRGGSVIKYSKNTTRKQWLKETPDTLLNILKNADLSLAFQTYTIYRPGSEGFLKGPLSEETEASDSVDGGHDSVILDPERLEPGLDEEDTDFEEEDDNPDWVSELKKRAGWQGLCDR
# [2] = molecular target: Tyrosine-protein kinase JAK1 (Homo sapiens, UniProt P23458); test: Selectivity interaction (NanoBRET assay (HEK293T cells)) EUB0001559a JAK1; assay type: cell-based, HEK-293T
# Sequence of Tyrosine-protein kinase JAK1 (P23458 whole entry): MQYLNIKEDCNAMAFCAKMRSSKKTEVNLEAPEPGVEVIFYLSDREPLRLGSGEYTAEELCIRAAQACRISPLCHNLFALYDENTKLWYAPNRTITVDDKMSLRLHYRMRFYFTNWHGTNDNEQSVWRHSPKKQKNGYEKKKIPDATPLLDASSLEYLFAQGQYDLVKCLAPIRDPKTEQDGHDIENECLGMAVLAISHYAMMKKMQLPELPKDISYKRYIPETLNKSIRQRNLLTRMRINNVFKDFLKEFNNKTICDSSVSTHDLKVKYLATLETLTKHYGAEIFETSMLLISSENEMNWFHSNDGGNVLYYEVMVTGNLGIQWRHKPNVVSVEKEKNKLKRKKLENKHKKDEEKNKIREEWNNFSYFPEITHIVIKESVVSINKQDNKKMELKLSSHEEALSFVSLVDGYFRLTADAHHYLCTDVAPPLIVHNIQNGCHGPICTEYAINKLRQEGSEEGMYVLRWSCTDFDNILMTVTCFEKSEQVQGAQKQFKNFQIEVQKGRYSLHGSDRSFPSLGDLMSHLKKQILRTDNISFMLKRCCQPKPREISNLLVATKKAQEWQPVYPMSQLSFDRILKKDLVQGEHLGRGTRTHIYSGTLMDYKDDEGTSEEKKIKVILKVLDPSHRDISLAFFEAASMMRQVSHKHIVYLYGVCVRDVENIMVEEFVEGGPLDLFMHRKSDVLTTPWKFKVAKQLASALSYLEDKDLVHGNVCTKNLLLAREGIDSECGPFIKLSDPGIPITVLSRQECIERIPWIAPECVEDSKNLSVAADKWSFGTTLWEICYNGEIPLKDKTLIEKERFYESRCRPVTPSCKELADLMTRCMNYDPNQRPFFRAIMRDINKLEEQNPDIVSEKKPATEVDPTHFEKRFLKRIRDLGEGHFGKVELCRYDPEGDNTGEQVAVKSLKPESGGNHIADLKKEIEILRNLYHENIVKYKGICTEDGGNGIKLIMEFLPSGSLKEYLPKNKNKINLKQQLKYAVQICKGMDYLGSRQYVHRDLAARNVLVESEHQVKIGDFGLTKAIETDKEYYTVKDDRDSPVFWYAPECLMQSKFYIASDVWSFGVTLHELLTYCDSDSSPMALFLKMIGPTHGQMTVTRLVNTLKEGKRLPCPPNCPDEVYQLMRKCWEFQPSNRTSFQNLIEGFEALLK
# [3] = molecular target: T2, Phosphatidylinositol 5-phosphate 4-kinase type-2 beta (Homo sapiens) (UniProt P78356); test: Selectivity interaction (Kinase panel (KiNativ target engagement assay in Jurkat cells)) EUB0001635a PIP4K2B; assay type: cell-based; conditions: Selectivity number of off-targets 0.0, Selectivity number of targets 233.0, Source Knowledge https://www.sciencedirect.com/science/article/pii/S2451945619300674?via%3Dihub, at 1 µM
# T2 sequence (whole entry): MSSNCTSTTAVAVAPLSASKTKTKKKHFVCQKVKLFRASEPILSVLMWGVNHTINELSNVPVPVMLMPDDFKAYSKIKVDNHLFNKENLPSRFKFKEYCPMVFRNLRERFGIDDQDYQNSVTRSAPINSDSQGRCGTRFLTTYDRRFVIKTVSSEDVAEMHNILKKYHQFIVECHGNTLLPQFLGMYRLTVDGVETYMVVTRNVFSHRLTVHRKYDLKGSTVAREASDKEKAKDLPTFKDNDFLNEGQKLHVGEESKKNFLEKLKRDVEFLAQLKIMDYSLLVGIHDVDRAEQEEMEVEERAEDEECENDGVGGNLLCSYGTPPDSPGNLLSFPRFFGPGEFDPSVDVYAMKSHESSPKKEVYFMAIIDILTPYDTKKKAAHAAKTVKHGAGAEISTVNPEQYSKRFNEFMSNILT
# [4] = molecular target: 5'-AMP-activated protein kinase catalytic subunit alpha-1 (Homo sapiens, UniProt Q13131); test: Selectivity interaction (ActivX KiNativ screen (kinase selectivity in THP-1 cell lysates)) EUB0000639a PRKAA1; assay type: subcellular; conditions: lysate, at 0.01 µM
# Misshapen-like kinase 1 = Misshapen-like kinase 1 (Homo sapiens, UniProt Q8N4C8); test: Selectivity interaction (SelectScreen profiling (Invitrogen)) EUB0000607a MINK1; conditions: at 2 µM
# [5] = molecular target: Tyrosine-protein kinase FRK (Homo sapiens) (UniProt P42685); test: Selectivity interaction (SelectScreen profiling (Invitrogen)) EUB0000607a FRK; conditions: at 2 µM
# Sequence of Tyrosine-protein kinase FRK (Homo sapiens) (P42685 whole entry): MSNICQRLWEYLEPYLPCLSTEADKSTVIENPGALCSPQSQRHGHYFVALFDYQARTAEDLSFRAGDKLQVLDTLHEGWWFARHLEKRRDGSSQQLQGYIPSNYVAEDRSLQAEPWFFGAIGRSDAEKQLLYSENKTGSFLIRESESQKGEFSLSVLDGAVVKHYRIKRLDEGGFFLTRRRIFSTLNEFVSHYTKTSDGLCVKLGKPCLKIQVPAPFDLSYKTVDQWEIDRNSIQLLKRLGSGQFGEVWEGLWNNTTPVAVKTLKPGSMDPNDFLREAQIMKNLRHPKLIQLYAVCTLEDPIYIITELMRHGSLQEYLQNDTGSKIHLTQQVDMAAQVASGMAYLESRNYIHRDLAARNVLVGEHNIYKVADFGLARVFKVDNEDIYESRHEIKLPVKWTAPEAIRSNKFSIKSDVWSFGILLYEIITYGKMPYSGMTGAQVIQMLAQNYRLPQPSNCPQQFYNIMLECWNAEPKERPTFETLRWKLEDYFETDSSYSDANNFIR
# [6] = molecular target: T3, Peripheral plasma membrane protein CASK (Homo sapiens) (UniProt O14936); test: Selectivity interaction (KinomeScan (DiscoverX)) EUB0000607a CASK; conditions: at 10 µM
# T3 sequence (whole entry): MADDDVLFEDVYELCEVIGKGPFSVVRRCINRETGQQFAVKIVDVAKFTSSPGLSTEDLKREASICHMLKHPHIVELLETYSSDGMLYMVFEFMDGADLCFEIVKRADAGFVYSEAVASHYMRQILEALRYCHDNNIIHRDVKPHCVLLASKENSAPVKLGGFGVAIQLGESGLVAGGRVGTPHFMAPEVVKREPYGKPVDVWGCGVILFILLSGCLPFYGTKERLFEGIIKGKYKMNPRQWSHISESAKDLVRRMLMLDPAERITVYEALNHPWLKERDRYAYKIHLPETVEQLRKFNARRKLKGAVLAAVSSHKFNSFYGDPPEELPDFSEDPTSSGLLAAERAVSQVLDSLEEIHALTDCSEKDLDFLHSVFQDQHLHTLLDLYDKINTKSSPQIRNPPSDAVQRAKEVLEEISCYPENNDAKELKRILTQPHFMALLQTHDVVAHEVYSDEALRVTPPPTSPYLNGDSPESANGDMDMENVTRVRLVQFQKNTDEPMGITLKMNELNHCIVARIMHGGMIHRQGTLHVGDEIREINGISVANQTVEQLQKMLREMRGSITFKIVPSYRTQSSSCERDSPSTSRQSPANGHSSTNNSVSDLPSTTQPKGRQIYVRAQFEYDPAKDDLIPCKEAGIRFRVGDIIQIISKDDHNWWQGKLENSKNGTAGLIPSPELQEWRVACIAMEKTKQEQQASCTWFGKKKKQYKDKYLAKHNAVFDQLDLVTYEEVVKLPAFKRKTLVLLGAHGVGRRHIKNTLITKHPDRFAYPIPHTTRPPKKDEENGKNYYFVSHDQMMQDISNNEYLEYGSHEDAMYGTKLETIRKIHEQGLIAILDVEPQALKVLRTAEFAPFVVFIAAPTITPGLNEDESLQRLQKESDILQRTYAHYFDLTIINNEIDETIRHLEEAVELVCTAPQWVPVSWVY
# [7] = molecular target: Ribosomal protein S6 kinase alpha-1 (Homo sapiens, UniProt Q15418); test: Selectivity interaction (KinomeScan (DiscoverX)) EUB0000695a RPS6KA1; conditions: at 100 nM
# Sequence of Ribosomal protein S6 kinase alpha-1 (Q15418 whole entry): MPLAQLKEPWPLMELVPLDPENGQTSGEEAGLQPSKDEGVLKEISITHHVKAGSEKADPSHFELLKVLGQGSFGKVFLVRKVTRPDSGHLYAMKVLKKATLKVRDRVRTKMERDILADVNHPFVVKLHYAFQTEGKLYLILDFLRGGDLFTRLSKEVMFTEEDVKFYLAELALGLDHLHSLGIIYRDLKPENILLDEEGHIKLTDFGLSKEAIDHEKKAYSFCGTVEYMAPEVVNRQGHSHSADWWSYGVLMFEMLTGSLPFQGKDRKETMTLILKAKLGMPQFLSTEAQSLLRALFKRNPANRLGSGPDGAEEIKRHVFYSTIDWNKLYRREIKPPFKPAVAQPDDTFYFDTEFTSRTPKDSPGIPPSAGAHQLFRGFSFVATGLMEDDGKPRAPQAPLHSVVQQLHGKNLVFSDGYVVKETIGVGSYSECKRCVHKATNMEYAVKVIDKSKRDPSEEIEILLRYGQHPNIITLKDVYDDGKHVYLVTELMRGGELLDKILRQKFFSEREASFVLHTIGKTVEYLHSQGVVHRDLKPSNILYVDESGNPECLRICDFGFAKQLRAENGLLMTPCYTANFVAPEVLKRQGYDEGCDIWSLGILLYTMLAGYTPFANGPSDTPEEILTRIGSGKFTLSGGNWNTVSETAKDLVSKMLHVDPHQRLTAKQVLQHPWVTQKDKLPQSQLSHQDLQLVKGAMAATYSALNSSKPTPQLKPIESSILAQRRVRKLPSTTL
# [8] = molecular target: Serine/threonine-protein kinase pim-3 (Homo sapiens) (UniProt Q86V86); test: Selectivity interaction (KinomeScan (DiscoverX)) EUB0000595a PIM3; conditions: at 10 µM
# [9] = molecular target: Phosphatidylinositol 4-kinase beta (Homo sapiens, UniProt Q9UBF8); test: Selectivity interaction (KinomeScan (DiscoverX)) EUB0000045b PI4KB
# Sequence of Phosphatidylinositol 4-kinase beta (Q9UBF8 2-816 limits assumed): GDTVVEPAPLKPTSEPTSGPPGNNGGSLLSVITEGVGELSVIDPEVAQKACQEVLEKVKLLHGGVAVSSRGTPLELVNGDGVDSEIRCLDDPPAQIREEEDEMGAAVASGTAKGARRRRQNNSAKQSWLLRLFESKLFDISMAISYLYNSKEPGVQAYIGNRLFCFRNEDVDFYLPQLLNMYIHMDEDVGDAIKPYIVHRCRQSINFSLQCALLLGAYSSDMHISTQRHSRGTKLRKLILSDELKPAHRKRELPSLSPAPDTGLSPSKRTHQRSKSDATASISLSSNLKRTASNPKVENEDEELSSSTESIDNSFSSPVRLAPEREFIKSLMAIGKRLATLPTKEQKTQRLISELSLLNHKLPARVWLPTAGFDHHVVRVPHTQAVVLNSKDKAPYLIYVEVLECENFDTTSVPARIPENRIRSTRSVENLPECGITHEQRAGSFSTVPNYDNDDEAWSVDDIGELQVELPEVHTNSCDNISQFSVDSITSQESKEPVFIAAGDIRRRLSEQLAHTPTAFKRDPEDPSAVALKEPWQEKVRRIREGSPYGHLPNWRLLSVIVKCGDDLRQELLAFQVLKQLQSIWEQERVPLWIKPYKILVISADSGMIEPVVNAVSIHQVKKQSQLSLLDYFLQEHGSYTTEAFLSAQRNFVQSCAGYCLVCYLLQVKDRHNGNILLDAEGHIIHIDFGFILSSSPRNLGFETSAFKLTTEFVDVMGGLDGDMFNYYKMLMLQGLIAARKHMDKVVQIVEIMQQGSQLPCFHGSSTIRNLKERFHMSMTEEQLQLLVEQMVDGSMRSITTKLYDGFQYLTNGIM
# [10] = molecular target: Serine/threonine-protein kinase tousled-like 2 (Homo sapiens) (UniProt Q86UE8); test: Selectivity interaction (KinomeScan (DiscoverX)) EUB0000045b TLK2
# Sequence of Serine/threonine-protein kinase tousled-like 2 (Homo sapiens) (Q86UE8 whole entry, looked up): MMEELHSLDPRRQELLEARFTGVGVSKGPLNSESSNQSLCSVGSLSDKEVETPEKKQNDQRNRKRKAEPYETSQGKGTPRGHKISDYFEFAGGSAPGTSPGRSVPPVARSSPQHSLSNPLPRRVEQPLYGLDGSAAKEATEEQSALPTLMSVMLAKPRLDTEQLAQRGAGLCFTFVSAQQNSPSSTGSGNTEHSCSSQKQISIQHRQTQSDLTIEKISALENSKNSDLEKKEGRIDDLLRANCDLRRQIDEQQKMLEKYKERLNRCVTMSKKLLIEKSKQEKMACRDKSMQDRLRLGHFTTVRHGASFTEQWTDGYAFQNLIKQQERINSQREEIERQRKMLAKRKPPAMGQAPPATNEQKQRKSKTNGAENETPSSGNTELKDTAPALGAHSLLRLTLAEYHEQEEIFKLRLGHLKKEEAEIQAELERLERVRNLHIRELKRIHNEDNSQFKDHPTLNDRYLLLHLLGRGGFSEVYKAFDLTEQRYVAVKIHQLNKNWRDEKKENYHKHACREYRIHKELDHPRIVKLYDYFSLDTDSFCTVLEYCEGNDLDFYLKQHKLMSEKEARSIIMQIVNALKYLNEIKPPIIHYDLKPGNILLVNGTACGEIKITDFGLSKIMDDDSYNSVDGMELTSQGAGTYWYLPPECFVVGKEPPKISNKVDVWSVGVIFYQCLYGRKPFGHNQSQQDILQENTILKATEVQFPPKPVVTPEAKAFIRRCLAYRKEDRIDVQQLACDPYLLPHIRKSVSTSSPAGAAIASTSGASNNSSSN
# [11] = molecular target: Glycogen synthase kinase-3 alpha (Homo sapiens, UniProt P49840); test: Selectivity interaction (KinomeScan (DiscoverX)) EUB0001619a GSK3A; conditions: at 1 µM
# Sequence of Glycogen synthase kinase-3 alpha (P49840 2-483 limits assumed): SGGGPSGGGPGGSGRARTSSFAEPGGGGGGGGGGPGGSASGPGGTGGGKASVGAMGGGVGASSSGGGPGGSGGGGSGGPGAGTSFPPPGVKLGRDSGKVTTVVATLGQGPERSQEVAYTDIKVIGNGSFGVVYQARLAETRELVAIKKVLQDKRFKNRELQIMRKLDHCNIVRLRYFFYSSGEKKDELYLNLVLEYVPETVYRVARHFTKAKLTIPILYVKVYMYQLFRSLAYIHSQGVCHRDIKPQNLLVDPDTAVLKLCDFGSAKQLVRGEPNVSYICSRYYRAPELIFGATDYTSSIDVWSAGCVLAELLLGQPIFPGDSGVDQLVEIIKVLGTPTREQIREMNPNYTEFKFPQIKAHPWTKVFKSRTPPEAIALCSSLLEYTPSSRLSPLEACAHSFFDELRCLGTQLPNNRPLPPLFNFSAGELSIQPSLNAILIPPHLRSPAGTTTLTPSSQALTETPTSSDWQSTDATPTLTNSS
structure (smiles),measurement,setting,value
CCC(=O)N1CCN(c2ccc(-n3c(=O)ccc4cnc5ccc(-c6cnc7ccccc7c6)cc5c43)cc2C(F)(F)F)CC1,% of control,[1],100%
CN(C(=O)c1cnn2cccnc12)c1cc2c(cc1N1CCOCC1)C(=O)N(C[C@@H](F)C(C)(C)O)C2,pEC50,[2],< 4.30
C=CC(=O)Nc1ccc(C(=O)Nc2[nH]nc3c2CN(C(=O)N[C@H](CN(C)C)c2ccccc2)C3(C)C)cc1,% of engagement,[3],-4.5%
CC[C@@H]1[C@H](F)C(=O)N[C@@H]1COc1nccc2cc(C(N)=O)c(OC)cc12 [ZIMLOVISERTIB],% of inhibition,[4],14.5%
CNC(=O)Nc1ccc(-c2nc(N3CC4CCC(C3)O4)c3cnn(C4CCC5(CC4)OCCO5)c3n2)cc1,% of inhibition,Misshapen-like kinase 1,14%
same,% of inhibition,[5],3%
same,% of control,[6],64%
Cc1cc(F)c(C(=O)Nc2cccc(-c3nncn3C(C)C)n2)cc1-n1cnc(C2CC2)c1,% of control,[7],100%
COCC(=O)NC/C=C/c1ccc2ncnc(Nc3ccc(Oc4ccc(C)nc4)c(C)c3)c2c1 [CP-724714],% of control,[8],100%
C=CC(=O)Nc1cc(-n2c(=O)ccc3cnc4ccc(-c5ccc(NS(C)(=O)=O)cc5)cc4c32)ccc1C,% of control,[9]; at 1 µM,79%
same,% of control,[9]; at 10 µM,20%
same,% of control,[10]; at 1 µM,100%
same,% of control,[10]; at 10 µM,100%
N#Cc1cccc(-c2c[nH]c3ncnc(N4CCOCC4)c23)c1,% of control,[11],100%
